Test results as given in PMC6409689, “Characteristics of the First Protein Tyrosine Phosphatase with Phytase Activity from a Soil Metagenome” (Genes, 2019).

Experiments:
Pho16B = Pho16B (uncultured organism, UniProt A0A3G1QTG4); assay: phosphate release, ammonium molybdate assay at […] nm; Michaelis-Menten fit; conditions: pH 5.6, 45 °C; printed kcat, Km and kcat/Km do not agree
[1] = system: O=[N+]([O-])c1ccc(OP(=O)(O)O)cc1; assay: purified protein; conditions: pH 5.6, 45 °C, printed kcat, Km and kcat/Km do not agree

Chain of Pho16B (A0A3G1QTG4 1-376): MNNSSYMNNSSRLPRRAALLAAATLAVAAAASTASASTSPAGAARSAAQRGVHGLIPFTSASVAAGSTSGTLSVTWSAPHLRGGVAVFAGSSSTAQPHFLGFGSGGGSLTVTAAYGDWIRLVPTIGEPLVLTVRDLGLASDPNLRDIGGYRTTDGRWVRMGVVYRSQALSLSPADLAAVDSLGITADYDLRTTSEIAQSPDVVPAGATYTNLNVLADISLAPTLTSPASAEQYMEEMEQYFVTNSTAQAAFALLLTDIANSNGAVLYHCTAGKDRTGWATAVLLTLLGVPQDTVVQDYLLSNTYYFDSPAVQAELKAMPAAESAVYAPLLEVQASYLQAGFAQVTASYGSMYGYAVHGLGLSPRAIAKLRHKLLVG

Row | Substance | Km (Pho16B) [µM] | Km [1] [µM]
1 | Naphthyl phosphate | 966 ± 180 | 
2 | Pho16B (uncultured organism) |  | 1026 ± 140
